For orientation: IC50 means the concentration at which inhibition is half-maximal.

These results are taken from patent US12018023B2 (NERVIANO MEDICAL SCIENCES S.R.L., priority 2018, dated 2024).

One experiment deals with T1, IDH1^R132C (Homo sapiens, UniProt O75874, R132C).
T1 construct: purchased not specified
Briefly: NADPH depletion assay, IDH1 R132C. It is filed as biochemical. The procedure, abridged: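 IDH1 R132C (2 nM) preincubated 15 min at RT with compound in Tris-HCl pH 7.6/MgCl2 buffer, then 60 min RT with NADPH and 0.14 mM alpha-ketoglutarate. Remaining NADPH read by diaphorase/resazurin fluorescence (Ex544/Em590).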

A further experiment concerns U87MG_IDH1R132H. Briefly: Cellular 2-HG production assay, U87-MG-IDH1 R132H. The format is cell-based. The following applies: inhibition of 2HG production, 72 hr incubation, LC-MS/MS. The procedure:
(§1) Cell lines HT-1080 (commercially available) and U87-MG-IDH1^R132H (obtained in analoy to the procedure reported in J. Mol. Neurosci 2013, 50, 165-71) are maintained in E-MEM 10% FCS and incubated at 37° C. in a humidified 5% CO2 atmosphere. Stably transfected U87-MG cell lines are also supplemented with 500 μg/mL G418.
(§2) Cells are seeded into 96 well black flat bottom plates at a density of 500 cells/well in 100 μL complete medium. After 24 hr the medium is replaced with 200 uL of fresh medium and compounds (dissolved into DMSO) are administrated to the cells using D300E Digital Dispenser (Tecan).
(§3) After 72 hr of incubation 100 uL from each well are collected and used for 2HG (R(−)-2-hydroxyglutarate) quantification.
(§4) Levels of 2-HG in cell culture media are determined by LC-MS/MS. Cell supernatants (100 μL/well) are treated with 1 M aqueous trichloroacetic acid containing 130 μM of the internal standard 2-HG-d3 (20 μL/well) in a 96-well plate.
(§5) The plates are sealed, mildly vortexed for 60 minutes, centrifuged at 4,000 RPM for 15 minutes, placed in a refrigerated autosampler taking care not to shake them, and aliquots of the upper part of the samples are directly injected in the chromatographic system. Calibration standards are obtained by ten fold dilution of aqueous 2-HG stock solutions with blank cell culture medium and denatured exactly in the same way as described above for samples. Samples and standards are assayed for 2-HG by reversed phase chromatography on a C18 column eluted with aqueous 0.15% formic acid and briefly washed with 90% methanol at the end of the run. 2-HG is determined by negative ion electrospray ionization with the internal standard method on a triple quadrupole mass spectrometer monitoring the MRM transitions 147>129 (2-HG) and 150>132 (2-HG-d3). 2-HG inhibition was calculated by comparing treated versus control data using Assay Explore (Symyx) software, with IC50 determined using a sigmoidal fitting algorithm.

Experiment [1] concerns the target T2, IDH1^R132H homodimer enzyme (Homo sapiens, UniProt O75874, R132H).
T2 construct: purchased not specified
In words: NADPH depletion assay, IDH1 R132H. It is filed as biochemical. The procedure, abridged: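 IDH1 R132H enzyme (8 nM as diluted) in Tris-HCl pH 7.6 with 10 mM MgCl2, 0.001% Triton X-100 and 4 mM β-mercaptoethanol is preincubated 15 min at RT with compound. Substrate mix (12 uM NADPH, 3.4 mM α-ketoglutarate) is added for 60 min; remaining NAD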

The target in the next experiment is T3, IDH2^R172K (Homo sapiens, UniProt P48735, R172K).
T3 construct: purchased not specified
T3 sequence (P48735 40-452 R172K): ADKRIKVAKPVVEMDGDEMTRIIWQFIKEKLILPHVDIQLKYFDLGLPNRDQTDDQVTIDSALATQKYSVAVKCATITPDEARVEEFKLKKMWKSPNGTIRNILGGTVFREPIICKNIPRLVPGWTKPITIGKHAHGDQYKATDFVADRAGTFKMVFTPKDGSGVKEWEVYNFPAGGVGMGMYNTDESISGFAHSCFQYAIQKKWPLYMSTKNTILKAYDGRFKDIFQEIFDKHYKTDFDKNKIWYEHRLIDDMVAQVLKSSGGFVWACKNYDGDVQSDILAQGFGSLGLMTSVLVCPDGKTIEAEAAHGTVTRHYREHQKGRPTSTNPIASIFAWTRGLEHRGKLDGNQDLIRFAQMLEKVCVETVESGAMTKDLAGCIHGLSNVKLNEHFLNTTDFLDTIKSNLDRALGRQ
In words: NADPH depletion assay, IDH2 R172K. The format is biochemical. The method, boiled down: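 IDH2 R172K (16 nM) was preincubated 15 min at RT with compound (1:3 series from 1 mM in DMSO) in Tris pH 7.6/NaCl/MgCl2/Triton/β-mercaptoethanol. The reaction ran 60 min at RT with 0.55 mM alpha-ketoglutarate and NADPH (12 μM in the substrate mix). Remaining NADPH was read with diaphorase/resazurin fluorescence at Ex544/Em590.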

Another experiment relates to HT-1080 (IDH1^R132C). In words: Cellular 2-HG production assay, HT-1080. It is filed as cell-based. The conditions noted are these: Homo sapiens, HT-1080, 72 h, read-out: HT1080 2-HG IC50. The procedure: as §1, §2, §3, §4, §5
The mark [2] stands for this setting: inhibition of 2HG production, 72 hr incubation, LC-MS/MS.

Where two headings read alike, the source gives them in different places.

T1 sequence (O75874 whole entry R132C): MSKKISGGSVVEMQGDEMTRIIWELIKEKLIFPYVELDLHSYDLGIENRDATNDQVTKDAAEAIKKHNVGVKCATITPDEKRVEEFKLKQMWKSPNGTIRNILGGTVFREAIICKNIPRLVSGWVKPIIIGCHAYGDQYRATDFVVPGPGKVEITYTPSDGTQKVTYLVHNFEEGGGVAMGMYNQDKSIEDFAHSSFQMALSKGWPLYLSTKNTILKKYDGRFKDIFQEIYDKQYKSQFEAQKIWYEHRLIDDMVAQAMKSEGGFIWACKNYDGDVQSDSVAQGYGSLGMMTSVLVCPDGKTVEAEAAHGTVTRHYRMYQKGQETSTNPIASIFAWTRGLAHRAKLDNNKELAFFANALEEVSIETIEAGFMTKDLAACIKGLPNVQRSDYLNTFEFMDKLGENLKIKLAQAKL
T2 sequence (O75874 whole entry R132H): as the sequence (O75874 whole entry R132C) above, with C132H counted along it

Regarding `C[C@H](Nc1ncc2ccc(=O)n(CC(C)(C)C)c2n1)c1ccc(C(=O)N2CCC(F)(F)CC2)cc1` [cpd 83, 2-{[(1S)-1-{4-[(4,4-difluoropiperidin-1-yl)carbonyl]phenyl}ethyl]amino}-8-(2,2-dimethylpropyl) pyrido[2,3-d]pyrimidin-7(8H)-one], the IC50 against IDH1^R132C stood at 196 nM; in the experiment with U87MG_IDH1R132H, 2060 nM; in experiment [1], 347 nM; against IDH2^R172K, 4260 nM.
In the same order, the values of `C[C@H](Nc1ncc2ccc(=O)n(Cc3c(F)cccc3F)c2n1)c1ccc(CN2CCC(F)(F)CC2)cc1` [cpd 99, 8-(2,6-difluorobenzyl)-2-{[(1S)-1-{4-[(4,4-difluoropiperidin-1-yl)methyl]phenyl}ethyl]amino}pyrido[2,3-d]pyrimidin-7(8H)-one] are 132 nM, 1380 nM, 201 nM and 3630 nM.
For `C[C@H](Nc1ncc2ccc(=O)n(Cc3c(F)cccc3F)c2n1)c1ccc(C(=O)NC2CCC(F)(F)CC2)cc1` [cpd 75, 4-[(1S)-1-{[8-(2,6-difluorobenzyl)-7-oxo-pyrido[2,3-d]pyrimidin-2-yl]amino}ethyl]-N-(4,4-difluorocyclohexyl)benzamide], the 50% inhibitory concentration (IC50) came to 431 nM against IDH1^R132C, 1190 nM in the experiment with U87MG_IDH1R132H and 407 nM in experiment [1].
With `C[C@H](Nc1ncc2ccc(=O)n([C@@H](C)C(C)(C)C)c2n1)c1ccc(CN2CCCC(F)(F)C2)cc1` [cpd 69, 2-{[(1S)-1-{4-[(3,3-difluoropiperidin-1-yl)methyl]phenyl}ethyl]amino}-8-[(2S)-3,3-dimethylbutan-2-yl]pyrido [2,3-d]pyrimidin-7(8H)-one], the results for the IC50 (on IDH1^R132C; with U87MG_IDH1R132H; in experiment [1]) were 22 nM, 78 nM and 36 nM, respectively.
`C[C@H](Nc1ncc2ccc(=O)n(CC(C)(C)C)c2n1)c1cc2cc(Cl)ccc2[nH]c1=O` [cpd 50, 2-{[(1S)-1-(6-chloro-2-oxo-quinolin-3-yl)ethyl]amino}-8-(2,2-dimethylpropyl)pyrido[2,3-d]pyrimidin-7(8H)-one]: the IC50 against IDH1^R132C worked out at 38 nM; with U87MG_IDH1R132H, 2530 nM; in experiment [1], 68 nM; against IDH2^R172K it was 2510 nM.
With `CC(Nc1ncc2ccc(=O)n(CC(C)(C)C)c2n1)c1ccc(C(=O)NC2CCC(F)(F)CC2)c(Cl)c1` (stereo not drawn) [cpd 82, 2-chloro-N-(4,4-difluorocyclohexyl)-4-(1-{[8-(2,2-dimethylpropyl)-7-oxo-pyrido[2,3-d]pyrimidin-2-yl]amino}ethyl) benzamide], the values for the IC50 (at IDH1^R132C; in the experiment with U87MG_IDH1R132H; in experiment [1]) were 134 nM, 1320 nM and 146 nM, respectively.
Consider `C=CC(=O)N1CCN(C(=O)c2ccc([C@H](C)Nc3ncc4ccc(=O)n(CC(C)(C)C)c4n3)cc2F)CC1` [cpd 142, 2-{[(1S)-1-{4-[(4-acryloylpiperazin-1-yl)carbonyl]-3-fluorophenyl}ethyl]amino}-8-(2,2-dimethylpropyl)pyrido [2,3-d]pyrimidin-7(8H)-one], for which the half-maximal inhibitory concentration (IC50) worked out at 214 nM on IDH1^R132C, 176 nM in experiment [1], 552 nM on IDH2^R172K and 75 nM in the experiment with HT-1080 (IDH1^R132C).
Turning to `C[C@@H]1CN(Cc2ccc([C@H](C)Nc3ncc4ccc(=O)n(CC(C)(C)C)c4n3)c(F)c2)C[C@H](C)O1` [cpd 151, 2-{[(1S)-1-(4-{[(2R,6S)-2,6-dimethylmorpholin-4-yl]methyl}-2-fluorophenyl)ethyl]amino}-8-(2,2-dimethylpropyl)pyrido[2,3-d]pyrimidin-7(8H)-one], the IC50 against IDH1^R132C was 20 nM; with U87MG_IDH1R132H it was 321 nM; in experiment [1], 95 nM.
On to `C=CC(=O)N1CCN([C@@H](CC)c2ccc([C@H](C)Nc3cc4c(ccc(=O)n4CC)cn3)cc2)CC1`, for which the IC50 against IDH1^R132C came out at 4 nM; in experiment [1], 4 nM; against IDH2^R172K it was 25 nM; in the experiment with HT-1080 (IDH1^R132C) (setting [2]), 0.9 nM.
For the molecule `C=CC(=O)N1CCN([C@@H](CC)c2ccc([C@H](C)Nc3cc4c(ccc(=O)n4C(C)C)cn3)cc2)CC1` [cpd 239, 7-{[(1S)-1-{4-[(1S)-1-(4-acryloylpiperazin-1-yl)propyl]phenyl}ethyl]amino}-1-(propan-2-yl)-1,6-naphthyridin-2(1H)-one], the IC50 is 2 nM against IDH1^R132C, 2 nM in experiment [1], 20 nM at IDH2^R172K and 0.9 nM in the experiment with HT-1080 (IDH1^R132C) (setting [2]).
Regarding `Cc1ccccc1Cn1c(=O)ccc2cnc(N[C@@H](C)c3ccc(CN4CCC(F)(F)CC4)cc3)nc21` [cpd 112, 2-{[(1S)-1-{4-[(4,4-difluoropiperidin-1-yl)methyl]phenyl}ethyl]amino}-8-(2-methylbenzyl)pyrido[2,3-d]pyrimidin-7(8H)-one], the values for the IC50 (on IDH1^R132C; in the experiment on U87MG_IDH1R132H; in experiment [1]) were 178 nM, 1610 nM and 190 nM, respectively.
Turning to `C[C@H](Nc1ncc2ccc(=O)n(CC(C)(C)C)c2n1)c1ccc2ccccc2c1` [cpd 36, 8-(2,2-dimethylpropyl)-2-{[(1S)-1-(naphthalen-2-yl)ethyl]amino}pyrido[2,3-d]pyrimidin-7(8H)-one], the IC50 with U87MG_IDH1R132H came out at 4040 nM; in experiment [1], 178 nM; against IDH2^R172K, 6540 nM.
Regarding `C/C=C/C(=O)N1CCN(Cc2ccc([C@H](C)Nc3ncc4ccc(=O)n(CC(C)(C)C)c4n3)cc2)CC1` [cpd 143, 2-({(1S)-1-[4-({4-[(2E)-but-2-enoyl]piperazin-1-yl}methyl)phenyl]ethyl}amino)-8-(2,2-dimethylpropyl) pyrido [2,3-d]pyrimidin-7(8H)-one], the figures for the IC50 (against IDH1^R132C; in experiment [1]; with HT-1080 (IDH1^R132C) (setting [2])) were 66 nM, 236 nM and 517 nM, respectively.
For `C[C@H](Nc1ncc2ccc(=O)n(CC(C)(C)CO)c2n1)c1ccc(-c2ccsc2)cc1` [cpd 136, 8-(3-hydroxy-2,2-dimethylpropyl)-2-({(1S)-1-[4-(thiophen-3-yl)phenyl]ethyl}amino)pyrido[2,3-d]pyrimidin-7 (8H)-one], the IC50 against IDH1^R132C turned out to be 54 nM; in the experiment on U87MG_IDH1R132H, 2910 nM; in experiment [1], 122 nM.
`CC(C)[C@H](C)n1c(=O)ccc2cnc(N[C@@H](C)c3ccc(CN4C[C@@H](C)O[C@@H](C)C4)c(F)c3)nc21` [cpd 150, 2-{[(1S)-1-(4-{[(2R,6S)-2,6-dimethylmorpholin-4-yl]methyl}-3-fluorophenyl)ethyl]amino}-8-[(2S)-3-methylbutan-2-yl]pyrido[2,3-d]pyrimidin-7(8H)-one]: the results for the IC50 (against IDH1^R132C; in the experiment with U87MG_IDH1R132H; in experiment [1]) were 8 nM, 127 nM and 20 nM, respectively.
Take `C[C@H](Nc1ncc2ccc(=O)n(Cc3c(F)cccc3F)c2n1)c1ccc(C(=O)N2CCC(F)(F)CC2)cc1` [cpd 77, 8-(2,6-difluorobenzyl)-2-{[(1S)-1-{4-[(4,4-difluoropiperidin-1-yl)carbonyl]phenyl}ethyl]amino} pyrido[2,3-d]pyrimidin-7(8H)-one]: the figures for the IC50 (at IDH1^R132C; in the experiment on U87MG_IDH1R132H; in experiment [1]) were 209 nM, 3030 nM and 207 nM, respectively.
